Laboratory results: patent US6812346B2, “Substituted pyridines as selective cyclooxygenase-2 inhibitors” (Merck Frosst Canada and Co., priority 1996, dated 2004)
Like-named read-outs stand apart in the source and are kept apart here.

Assays:
[1] = tested on: carrageenan-induced rat paw edema; assay: Rat paw edema assay; assay type: in vivo; conditions: male Sprague-Dawley rats, po, 1 hr before carrageenan, paw volume 3 hr later; for ED50: Rattus norvegicus
Description: Male Sprague-Dawley rats (150-200 g) are fasted overnight and are given, po, either vehicle (1% methocel or 5% Tween 80) or a test compound. One hr later, a line is drawn using a permanent marker at the level above the ankle in one hind paw to define the area of the paw to be monitored. The paw volume (V0) is measured using a plethysmometer (Ugo-Basile, Italy) based on the principle of water displacement. The animals are then injected subplantarly with 50 μl of 1% carrageenan solution in saline (FMC Corp, Maine) into the paw using an insulin syringe with a 25-gauge needle (i.e. 500 μg carrageenan per paw). Three hr later, the paw volume (V3) is measured and the increases in paw volume (V3-V0) are calculated. The animals are sacrificed by CO2 asphyxiation and the absence or presence of stomach lesions scored. Data is compared with the vehicle-control values and percent inhibition calculated. All treatment groups are coded to eliminate observer bias.

COX-2 = biological target: T1, COX-2 (Homo sapiens, UniProt P35354); assay: Human whole blood assay, COX-2 (LPS-induced PGE2 production); assay type: cell-based
T1 sequence (P35354 18-604): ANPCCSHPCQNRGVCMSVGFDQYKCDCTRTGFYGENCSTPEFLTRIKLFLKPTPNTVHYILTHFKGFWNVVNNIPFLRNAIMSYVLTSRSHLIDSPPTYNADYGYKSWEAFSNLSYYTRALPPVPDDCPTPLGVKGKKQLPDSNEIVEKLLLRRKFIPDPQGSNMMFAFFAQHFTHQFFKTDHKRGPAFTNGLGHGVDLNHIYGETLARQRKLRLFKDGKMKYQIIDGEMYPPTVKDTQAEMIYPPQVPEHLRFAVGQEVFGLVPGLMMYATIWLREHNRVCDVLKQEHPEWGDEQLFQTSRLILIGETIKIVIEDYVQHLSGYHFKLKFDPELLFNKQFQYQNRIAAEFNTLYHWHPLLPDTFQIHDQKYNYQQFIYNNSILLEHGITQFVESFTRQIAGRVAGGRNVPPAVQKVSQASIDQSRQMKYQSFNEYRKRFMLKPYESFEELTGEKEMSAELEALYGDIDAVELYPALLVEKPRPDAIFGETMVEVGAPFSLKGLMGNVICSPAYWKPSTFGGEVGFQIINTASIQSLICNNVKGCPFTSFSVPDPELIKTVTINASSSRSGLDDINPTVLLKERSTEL
Excerpt: As well, platelets in whole blood contain a large amount of the COX-1 enzyme. Immediately following blood clotting, platelets are activated through a thrombin-mediated mechanism. This reaction results in the production of thromboxane B2 (TxB2) via activation of COX-1. Thus, the effect of test compounds on TxB2 levels following blood clotting can be examined and used as an index for COX-1 activity. Therefore, the degree of selectivity by the test compound can be determined by measuring the levels of PGE2 after LPS induction (COX-2) and TxB2 following blood clotting (COX-1) in the same assay.
Step A: COX-2 (LPS-induced PGE2 Production)
Fresh blood is collected in heparinized tubes by venipuncture from both male and female volunteers. The subjects have no apparent inflammatory conditions and have not taken any NSAIDs for at least 7 days prior to blood collection. Plasma is immediately obtained from a 2 mL blood aliquot to use as blank (basal levels of PGE2).

COX-1 = biological target: T2, COX-1 (Homo sapiens, UniProt P23219); assay: Cox-1 U937 (COX-1 activity from U937 cell microsomes); assay type: biochemical; conditions: U937, PGE2 synthesis in presence of AA
T2 construct: Assay of COX-1 Activity from U937 Cell Microsomes; endogenous in cells; host or cells: U937 cells, 100,000 x g microsomal fraction
T2 sequence (P23219 24-599): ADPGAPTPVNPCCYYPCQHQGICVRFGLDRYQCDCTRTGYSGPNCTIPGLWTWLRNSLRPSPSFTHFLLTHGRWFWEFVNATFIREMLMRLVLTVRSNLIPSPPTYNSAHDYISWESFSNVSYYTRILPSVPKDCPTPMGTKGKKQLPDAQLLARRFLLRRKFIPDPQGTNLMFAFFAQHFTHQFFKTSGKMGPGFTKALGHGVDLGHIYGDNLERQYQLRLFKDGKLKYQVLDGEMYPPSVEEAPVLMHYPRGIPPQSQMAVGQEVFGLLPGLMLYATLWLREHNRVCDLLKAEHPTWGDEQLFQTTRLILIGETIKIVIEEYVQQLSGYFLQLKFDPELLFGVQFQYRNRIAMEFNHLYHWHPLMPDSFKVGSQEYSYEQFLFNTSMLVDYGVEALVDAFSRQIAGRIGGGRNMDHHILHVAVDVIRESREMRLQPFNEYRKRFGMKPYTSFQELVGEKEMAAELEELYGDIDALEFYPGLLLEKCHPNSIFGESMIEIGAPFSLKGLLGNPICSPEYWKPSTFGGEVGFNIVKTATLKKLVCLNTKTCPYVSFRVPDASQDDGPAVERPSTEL
Description: Assay of COX-1 Activity from U937 Cell Microsomes
U 937 cells are pelleted by centrifugation at 500×g for 5 min and washed once with phosphate-buffered saline and repelleted. Cells are resuspended in homogenization buffer consisting of 0.1 M Tris-HCl, pH 7.4, 10 mM EDTA, 2 μg/ml leupeptin, 2 μg/ml soybean trypsin inhibitor, 2 μg/ml aprotinin and 1 mM phenyl methyl sulfonyl fluoride. The cell suspension is sonicated 4 times for 10 sec and is centrifuged at 10,000×g for 10 min at 4° C. The supernatant is centrifuged at 100,000×g for 1 hr at 4° C. The 100,000×g microsomal pellet is resuspended in 0.1 M Tris-HCl, pH 7.4, 10 mM EDTA to approximately 7 mg protein/ml and stored at −80° C.
Assays are performed in duplicate in a final volume of 250 μl. Initially, 5 μl of DMSO vehicle or drug in DMSO are added to 20 μl of 0.1 M Tris-HCl buffer, pH 7.4 containing 10 mM EDTA in wells of a 96-deepwell polypropylene titre plate. 200 μl of the microsomal preparation are then added and pre-incubated for 15 min at room temperature before addition of 25 μl of […] in […] Tris-HCl and 10 mM EDTA, pH 7.4. Samples are incubated for 40 min at room temperature and the reaction is stopped by the addition of 25 μl of 1 N HCl. Samples are neutralized with 25 μl of 1 N NaOH prior to quantitation of PGE2 content by radioimmunoassay (Dupont-NEN or Amersham assay kits). Cyclooxygenase activity is defined as the difference between PGE2 levels in samples incubated in the presence of arachidonic acid and ethanol vehicle.

[2] = Cox-1 U937 IC50 over Cox-2 whole blood IC50
[3] = human whole blood, LPS-induced PGE2 production, 24 hours at 37° C., read-out: Cox-2 Whole Blood (IC50)

IC50 (COX-1) [µM]	Selectivity Ratio (COX-2; [2])	IC50 (COX-2; [3]) [µM]	SMILES	ED50 [1] [mg/kg]	also measured
1	3.3	0.3	CS(=O)(=O)c1ccc(-c2cc(C(F)(F)F)cnc2-c2ccc(F)cc2)cc1 [Example 4, 2-(4-Fluorophenyl)-3-(4-methylsulfonyl)phenyl-5-trifluoromethylpyridine]		
1.5	4.4	0.3	CS(=O)(=O)c1ccc(-c2cc(C(F)(F)F)cnc2-c2ccccc2)cc1 [Example 1, 3-(4-Methylsulfonyl)phenyl-2-phenyl-5-trifluoromethylpyridine]	5.4	
2.2		4.9	CS(=O)(=O)c1ccc(-c2cccnc2-c2ccc(F)cc2)cc1 [Ab, reference compound]		
1.4	2	0.7	Cc1cnc(-c2ccc(Cl)cc2)c(-c2ccc(S(C)(=O)=O)cc2)c1 [Example 14, 2-(4-Chlorophenyl)-5-methyl-3-(4-methylsulfonyl)phenylpyridine]		
5			CS(=O)(=O)c1ccc(-c2cc(C(F)(F)F)cnc2-c2cccnc2)cc1 [Example 7, 3-(4-Methylsulfonyl)phenyl-2-(3-pyridinyl)-5-trifluoromethylpyridine]		
1.8	2	0.9	CS(=O)(=O)c1ccc(-c2cc(C(F)(F)F)cnc2-c2ccc(Cl)cc2)cc1 [Example 3, 2-(4-Chlorophenyl)-3-(4-methylsulfonyl)phenyl-5-trifluoromethylpyridine]		
> 10			Cc1ccc(-c2ncc(Cl)cc2-c2ccc(S(C)(=O)=O)cc2)cn1 [Example 23, 5-Chloro-3-(4-methylsulfonyl)phenyl-2-(2-methyl-5-pyridinyl)pyridine]		
> 10	>4.5	2.2	CS(=O)(=O)c1ccc(-c2cc(C#N)cnc2-c2ccc(Cl)cc2)cc1 [Example 45, 5-Cyano-2-(4-chlorophenyl)-3-(4-methylsulfonyl)phenylpyridine]	3	
3	6	0.5	Cc1cnc(-c2ccccc2)c(-c2ccc(S(C)(=O)=O)cc2)c1 [Example 13, 5-Methyl-3-(4-methylsulfonyl)phenyl-2-phenylpyridine]		

Further lines, the molecule ahead of its results:

SMILES	IC50 (COX-1) [µM]	Selectivity Ratio (COX-2; [2])	IC50 (COX-2; [3]) [µM]	ED50 [1] [mg/kg]	also measured
CS(=O)(=O)c1ccc(-c2cc(Cl)cnc2-c2cccnc2)cc1.Cl [Example 47, 5-Chloro-3-(4-methylsulfonyl)phenyl-2-(3-pyridyl)pyridine hydrochloride]					Rat Paw Edema (ED50, mg/kg) [1]: 2.4 mg/kg
CS(=O)(=O)c1ccc(-c2cc(Cl)cnc2-c2ccc(C3CC3)nc2)cc1 [Example 73, 5-Chloro-3-(4-methylsulfonyl)phenyl-2-(2-cyclopropyl-5-pyridinyl)pyridine]	7			2	IC50 (COX-2): 1.8 µM; Selectivity Ratio (COX-2): 3.8
Cc1ccc(-c2ncc(Cl)cc2-c2ccc(S(C)(=O)=O)cc2)cn1.Cl [Example 59, 5-Chloro-3-(4-methylsulfonyl)phenyl-2-(2-methyl-5-pyridinyl)pyridine Hydrochloride]					Rat Paw Edema (ED50, mg/kg) [1]: 0.8 mg/kg
CS(=O)(=O)c1ccc(-c2cc(Cl)cnc2-c2cccnc2)cc1 [Example 21, 5-Chloro-3-(4-methylsulfonyl)phenyl-2-(3-pyridinyl)pyridine]	16	16	1	2.3	
CCc1ccc(-c2ncc(Cl)cc2-c2ccc(S(C)(=O)=O)cc2)cn1 [Example 71, 5-Chloro-3-(4-methylsulfonyl)phenyl-2-(2-ethyl-5-pyridinyl)pyridine]	> 10			1.6	
CS(=O)(=O)c1ccc(-c2cccnc2-c2ccccc2)cc1 [Aa, reference compound]				> 10	
CS(=O)(=O)c1ccc(-c2cc(Br)cnc2-c2cccnc2)cc1 [Example 32]	> 10		1.2	0.9	
CS(=O)(=O)O.CS(=O)(=O)c1ccc(-c2cc(Cl)cnc2-c2cccnc2)cc1 [Example 46, 5-Chloro-3-(4-methylsulfonyl)phenyl-2-(3-pyridyl)pyridine hydromethanesulfonate]					Rat Paw Edema (ED50, mg/kg) [1]: 3.3 mg/kg
